Columns and labels:
[1] = biological target: T1, human CARS2 (Homo sapiens, UniProt Q9HA77); assay: DNPH derivatization, LC-ESI-MS/MS of bound PLP; type: binding; conditions: 37 °C, 1 h, 0-100 µM PLP
T1 sequence (Q9HA77 1-564): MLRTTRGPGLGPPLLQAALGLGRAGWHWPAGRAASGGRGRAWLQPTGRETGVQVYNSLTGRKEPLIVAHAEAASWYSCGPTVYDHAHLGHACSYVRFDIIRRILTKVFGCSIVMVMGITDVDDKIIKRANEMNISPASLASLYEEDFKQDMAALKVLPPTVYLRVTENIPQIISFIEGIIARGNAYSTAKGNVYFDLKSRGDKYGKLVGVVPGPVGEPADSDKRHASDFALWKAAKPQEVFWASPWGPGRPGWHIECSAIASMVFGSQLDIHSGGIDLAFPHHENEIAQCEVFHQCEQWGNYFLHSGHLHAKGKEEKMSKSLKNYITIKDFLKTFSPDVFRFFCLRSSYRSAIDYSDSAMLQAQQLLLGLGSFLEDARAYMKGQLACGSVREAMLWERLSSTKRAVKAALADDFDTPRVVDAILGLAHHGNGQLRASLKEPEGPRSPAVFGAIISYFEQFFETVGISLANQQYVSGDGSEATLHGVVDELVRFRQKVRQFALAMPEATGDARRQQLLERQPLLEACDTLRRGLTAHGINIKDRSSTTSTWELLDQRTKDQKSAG

[2] = biological target: T2, mouse CARS1 (Mus musculus, UniProt Q9ER72); assay: HPE-IAM labeling LC-MS/MS of CysSSH and CysSSSH; type: biochemical; conditions: 25 µM L-cysteine, 100 µM PLP, 37 °C, 2 h
T2 sequence (Q9ER72 2-831): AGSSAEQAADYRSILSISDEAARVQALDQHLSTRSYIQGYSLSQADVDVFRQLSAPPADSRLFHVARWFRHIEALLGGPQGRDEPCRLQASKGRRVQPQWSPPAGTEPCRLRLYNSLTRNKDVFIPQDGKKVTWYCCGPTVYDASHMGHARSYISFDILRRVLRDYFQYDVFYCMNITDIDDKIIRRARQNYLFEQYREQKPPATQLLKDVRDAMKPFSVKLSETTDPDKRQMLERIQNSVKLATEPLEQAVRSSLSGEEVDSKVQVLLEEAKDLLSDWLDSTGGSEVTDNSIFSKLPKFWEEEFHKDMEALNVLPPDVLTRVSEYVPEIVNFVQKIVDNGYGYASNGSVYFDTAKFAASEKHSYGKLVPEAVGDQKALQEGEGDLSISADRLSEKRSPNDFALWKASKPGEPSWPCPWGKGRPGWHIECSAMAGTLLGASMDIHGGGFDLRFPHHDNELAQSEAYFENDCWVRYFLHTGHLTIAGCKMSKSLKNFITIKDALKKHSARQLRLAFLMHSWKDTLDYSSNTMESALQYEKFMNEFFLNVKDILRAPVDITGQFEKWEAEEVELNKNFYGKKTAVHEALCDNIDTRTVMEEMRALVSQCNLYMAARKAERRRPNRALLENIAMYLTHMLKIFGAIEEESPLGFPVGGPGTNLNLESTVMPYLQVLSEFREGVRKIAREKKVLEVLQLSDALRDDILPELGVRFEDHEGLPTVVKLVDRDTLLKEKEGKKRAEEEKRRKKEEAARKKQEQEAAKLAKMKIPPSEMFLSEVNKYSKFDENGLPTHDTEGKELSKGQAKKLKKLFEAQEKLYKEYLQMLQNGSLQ

[3] = biological target: T3, EcCARS (Escherichia coli, UniProt P21888); assay: HPE-IAM labeling LC-ESI-MS/MS of CysSSH formed, Michaelis-Menten fit; type: biochemical; conditions: persulfide synthase reaction; 50 mM HEPES pH 7.5, 25 mM KCl, 15 mM MgCl2, 37 °C, 30 s
T3 construct: gene cysS
T3 sequence (P21888 1-461): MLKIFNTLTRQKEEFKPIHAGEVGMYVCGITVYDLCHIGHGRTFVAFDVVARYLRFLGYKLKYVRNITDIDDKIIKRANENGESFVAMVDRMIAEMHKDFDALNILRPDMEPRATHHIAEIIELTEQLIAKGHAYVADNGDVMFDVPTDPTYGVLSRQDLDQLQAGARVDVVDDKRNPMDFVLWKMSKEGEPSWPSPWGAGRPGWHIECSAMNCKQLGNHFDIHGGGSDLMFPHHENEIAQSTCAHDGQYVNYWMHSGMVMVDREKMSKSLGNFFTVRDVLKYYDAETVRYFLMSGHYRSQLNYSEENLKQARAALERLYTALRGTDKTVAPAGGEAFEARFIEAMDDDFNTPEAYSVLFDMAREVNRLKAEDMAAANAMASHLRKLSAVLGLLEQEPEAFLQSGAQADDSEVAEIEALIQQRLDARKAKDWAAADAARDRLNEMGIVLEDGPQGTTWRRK

Structure (SMILES) | DNPH derivatization, LC-ESI-MS/MS of bound PLP [1] | HPE-IAM labeling LC-MS/MS of CysSSH and CysSSSH [2] | Km [3]
Cc1ncc(COP(=O)(O)O)c(C=O)c1O [pyridoxal phosphate] | Precisely quantitative analysis for PLP bound to human CRAS2 | PLP-dependent CysSSH and CysSSSH biosynthesis by mouse CARS1 and human CARS2 | 
N[C@@H](CS)C(=O)O [L-cysteine] |  |  | EcCARS is very efficient in producing CysSSH

Reference: paper PMC5660078, “Cysteinyl-tRNA synthetase governs cysteine polysulfidation and mitochondrial bioenergetics” (Nature Communications, 2017)
